# From patent publication US9861606B2, “Therapeutic for treating inflammatory lung disorders” (University College Cardiff Consultants Limited, priority 2012, dated 2018)
# Experiments:
# BalbC mice = assay: Polycation-induced bronchial hyper-reactivity (Penh, plethysmography) in methacholine-challenged conscious mice; type: in vivo, mouse; settings: nebulised 3 μM; poly-L-arginine 3 μM; methacholine challenge
# Method: FIG. 5. […] prevent polycation-evoked BHR in methacholine-challenged mice. […] After the treatment, animals were placed in plethysmography chambers (Buxco, USA), allowed to settle for 10 minutes, and then they were challenged with methacholine (MCh, 0.1-10 mg/ml). Responses to methacholine obtained from the animals that have not received any treatments are shown in black symbols. From our previous estimates, 1-5% of the nebulised drug reaches the lung epithelium. […] FIG. 12. […] Male BalbC mice ( 25 g) were purchased from Harlan 1 week before the experimental protocols were performed. […] On the day of the experiment, the body weight of each mouse was recorded and mice were allowed to acclimatise to the chamber for at least 10 min before recordings were made. Then, respiratory activity was recorded for 5 min, to establish baseline value for Penh. […] Data were recorded for 3 minutes after each aerosol administration. The Penh values at each MCh concentration were averaged and expressed as a proportion of baseline Penh (Penh before treatment). […] The Penh values at each MCh concentration were averaged and expressed as a proportion of that day's baseline Penh (Penh after treatment). […] Effect of Polycations and of the Calcilytic NPS89636 on Bronchial Hyper-Reactivity in Unrestrained, Conscious Mice In Vivo Baseline airway hyper-responsiveness was measured by plethysmography. […]
# [1] = system: Dunkin-Hartley guinea pigs; assay: Inflammatory cell infiltration in BALF of LPS-treated guinea pig model of COPD; type: in vivo; settings: nebulised 3 micromolar, 30 min before LPS
# Method: FIG. 15. The calcilytic NPS89636 reduces inflammatory cell infiltration detected in the bronchioalveolar lavage fluid (BALF) from guinea pigs with LPS-induced COPD. Male Dunkin-Hartley guinea pigs (500-550 g) were exposed to 30 micrograms/ml of nebulized lipopolysaccharide (LPS) in saline for 1 hour on alternate days for nine exposures. Animals received nebulised 3 micromolar NPS89636 (or 0.3% DMSO vehicle) for 9 days starting after exposure 5 for 30 min, 30 min before LPS exposure every other day. Animals were killed 24 hours after the ninth exposure (1.5 mL of Euthatal IP) and BALF was collected and cells were counted the same day as described in FIG. 14. Data are presented as mean±S.E.M. Significant differences between vehicle and calcilytic are indicated, p<0.05, n=6. […] For the total cell counts 100 microliters of the concentrated BALF from OVA-sensitised mice or 100 microliters of the diluted BALF from guinea pigs were applied to the Cytospin 3 Shandon cell smearing system (using glass slides from Thermo Scientific (BS7011/2; 0.8-1 mm, 76×26 mm) and filter paper from Thermo Scientific (5991022; Shandon filter cards) at 1000 rt/min for 7 minutes. The slides then were immersed into 1.5% […] stain in methanol for 6 min, then briefly washed in water twice. The slides were allowed to dry overnight, and the cells were counted using 100× oil immersion objective.
smiles,measurement,setting,value
"CCc1ccc(CC(C)(C)NCC(O)COc2cc(-c3ccc(C(=O)O)cc3)ccc2C#N)c(F)c1.Cl (stereo in doubt) [NPS89636, (S)-4′-cyano-3′-[3-[2-(4-ethyl-2-fluorophenyl)-1,1-dimethylethylamino]-2-hydroxy-propoxy]-biphenyl-4-carboxylic acid hydrochloride]",Effect on poly-L-arginine-induced increase in airway reactivity (Penh),BalbC mice,completely prevented
same,"Effect on inflammatory cell infiltration (BALF), LPS-treated guinea pig",[1],"a reduction in the inflammatory cell infiltration, especially of lymphocytes and neutrophils"
